What is called EC50 is the concentration that produces a half-maximal response. A low value points to greater potency.

Sequence of Activated AMPK complex 1 (containing alpha1beta1gamma1) (Q13131 whole entry, the tested form may be a part): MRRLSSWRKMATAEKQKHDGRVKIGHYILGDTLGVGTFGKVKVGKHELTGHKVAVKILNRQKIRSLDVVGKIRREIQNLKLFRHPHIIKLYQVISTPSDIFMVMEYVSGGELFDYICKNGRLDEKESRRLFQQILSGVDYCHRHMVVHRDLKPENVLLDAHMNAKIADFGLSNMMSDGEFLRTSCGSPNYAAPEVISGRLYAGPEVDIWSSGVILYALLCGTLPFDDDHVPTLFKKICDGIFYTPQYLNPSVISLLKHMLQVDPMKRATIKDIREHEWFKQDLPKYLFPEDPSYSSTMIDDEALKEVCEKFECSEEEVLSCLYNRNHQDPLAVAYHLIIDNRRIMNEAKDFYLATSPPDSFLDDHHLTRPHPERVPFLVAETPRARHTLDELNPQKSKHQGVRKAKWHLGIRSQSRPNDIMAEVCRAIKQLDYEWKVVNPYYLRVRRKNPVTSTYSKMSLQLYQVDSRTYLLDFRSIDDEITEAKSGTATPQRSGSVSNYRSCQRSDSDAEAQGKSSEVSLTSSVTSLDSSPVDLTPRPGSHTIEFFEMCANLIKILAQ
Sequence of Activated AMPK complex 1 (containing alpha1beta1gamma1) (Q9Y478 whole entry, the tested form may be a part): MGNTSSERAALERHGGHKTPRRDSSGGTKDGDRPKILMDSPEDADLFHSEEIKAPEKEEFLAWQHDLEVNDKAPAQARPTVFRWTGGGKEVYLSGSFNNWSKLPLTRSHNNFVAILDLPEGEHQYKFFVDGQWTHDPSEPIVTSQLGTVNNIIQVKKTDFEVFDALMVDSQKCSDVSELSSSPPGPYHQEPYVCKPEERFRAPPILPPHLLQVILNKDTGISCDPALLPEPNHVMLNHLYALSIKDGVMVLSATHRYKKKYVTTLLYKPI
Sequence of Activated AMPK complex 1 (containing alpha1beta1gamma1) (P54619 whole entry partner, the tested form may be a part): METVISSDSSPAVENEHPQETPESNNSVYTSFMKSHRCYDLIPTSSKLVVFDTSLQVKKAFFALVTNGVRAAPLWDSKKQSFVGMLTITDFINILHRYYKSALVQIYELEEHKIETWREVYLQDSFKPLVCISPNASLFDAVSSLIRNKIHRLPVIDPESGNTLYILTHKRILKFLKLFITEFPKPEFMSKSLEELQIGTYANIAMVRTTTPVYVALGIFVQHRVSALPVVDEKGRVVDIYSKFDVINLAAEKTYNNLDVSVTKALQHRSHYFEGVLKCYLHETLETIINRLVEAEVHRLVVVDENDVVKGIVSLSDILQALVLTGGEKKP

The target in the experiment is Activated AMPK complex 1 (containing alpha1beta1gamma1) (Homo sapiens (Human), UniProt Q13131+Q9Y478). As to the kind of experiment: in vitro AMPK activation assay (ADP-Glo Kinase Assay). Type of experiment: biochemical. The note with it: 1 μM peptide substrate, 30 μM ATP, 60 min, room temperature, luminescence. The source says:
Activated AMPK complex 1 (containing alpha1beta1gamma1) was obtained from baculovirus expression system. The gene encoding AMPK alpha1 was cloned into the pACG2T vector (BD Biosciences) to obtain a N-terminal Glutathion S transferase (GST)-fusion protein. The genes encoding AMPK beta 1 and gamma1 were cloned into the p2Bac dual multiple cloning site vector (Invitrogen) with beta1 under the control of the p10 promoter and gamma1 under the control of the PH promoter. The transfer vectors containing AMPK were co-transfected individually with AcPNV BacMagic-3 DNA (EMD Millipore) in Sf9 cells and the recombinant baculoviruses were harvested after 5 days, followed by 3 rounds of amplification of the virus stock in Sf9 cells. AMPK (alpha1beta1gamma1) was expressed in High Five 5 cells by co-infection of recombinant alpha1 virus and recombinant beta1/gamma1 virus for 72 h at 27° C. Cells were harvested by centrifugation and lysed by 3 freeze/thaw cycles in PBS with 10% glycerol and protease inhibitor cocktail (Roche). After centrifugation AMPK a1b1g1 in the supernatant was captured by immobilized glutathione (GE Healthcare), impurities were washed away with PBS and AMPK alpha1beta1gamma1 was eluted with PBS containing 20 mM reduced gluthathione. The protein buffer was then exchanged to PBS with 10% glycerol and protein concentration was determined by UV absorbance.
The white 384-well Optiplates (cat. no. 6007299) were purchased from PerkinElmer. The V9101 ADP-Glo Kinase Assay and ultra pure ATP (V915A) was purchased from Promega. The substrate for AMPK (NH2-HMRSAMSGLHLVKRR_CONH2) was purchased from Upstate (12-355).
Compounds were tested in either serial dilutions or single dose concentrations. The serial compound dilutions were prepared in 100% DMSO automatically. The final DMSO concentration in the assay was 0.1%.
The Compound Stock Solutions were 10 mM in 100% DMSO. The compounds were solubilised at room temperature.
In the 384-well plates 1.25 ul of test compound in assay buffer was mixed with 1.25 ul of AMPK and 1.25 μl of the peptide (final concentration of 1 μM) and 1.25 μl of ATP (final concentration of 30 μM), both dissolved in assay buffer. This step was followed by an incubation time of 60 min. Then 5 μl of ADP Glo Reagent was added. This was followed by 40 min of incubation. Then 10 μl of Kinase Detection Reagent was admixed. The plates were sealed and after an incubation period of 30 min, the luminescence signal was measured in an Envision reader. All incubation steps were accomplished at room temperature.
Each assay microtiter plate contained wells with vehicle controls instead of compound (0.1% DMSO in water) as reference for the low signal (100% CTL, low signal), and wells with serial dilutions of AMP (final 30 μM) as reference for high signals.
The luminescence signal generated was proportional to the ADP concentration produced and was correlated with AMPK activity. The analysis of the data was performed by the calculation of the percentage of ATP consumption of AMPK in the presence of the test compound compared to the consumption of ATP in the presence of AMPK without compound. (RLU(sample)/RLU(low control))*100[RLU=relative luminescence units]
An activator of the AMPK enzyme gave values above 100% CTL.
EC50 values based on dose response curves are calculated with the XIFIT software using the 4 Parameter Logistic Model or Sigmoidal Dose-Response Model.
Background: ADP-Glo turns the ADP formed in a reaction into a luminescent signal.
In the case of `CS(=O)(=Nc1cnc(-c2ccc(-c3nc4[nH]c(O[C@@H]5CO[C@H]6[C@@H]5OC[C@H]6O)nc4cc3Cl)cc2)nc1)N1CCCC1` (stereo partly drawn) [Example 16, (3R,3aR,6R,6aR)-6-({6-Chloro-5-[4-(5-{[methyl(oxo)pyrrolidin-1-yl-λ^6-sulfanylidene]-amino}pyrimidin-2-yl)phenyl]-3H-imidazo[4,5-b]pyridin-2-yl}oxy)-hexahydrofuro[3,2-b]furan-3-ol], the midpoint of the response, the EC50, lay at 0.048 µM. `CN=S(=O)(NC)c1ccc(-c2ccc(-c3nc4[nH]c(O[C@@H]5CO[C@H]6[C@@H]5OC[C@H]6O)nc4cc3Cl)cc2)cc1` (stereo partly drawn) [Example 18, 4-[4-(2-{[(3R,3aR,6R,6aR)-6-hydroxy-hexahydrofuro[3,2-b]furan-3-yl]oxy}-6-chloro-3H-imidazo[4,5-b]pyridin-5-yl)phenyl]-N,N′-dimethyl-benzenesulfonimidamide] returned an EC50 of 0.067 µM. Consider `CN(C)S(C)(=O)=Nc1ccc(-c2nc3[nH]c(O[C@@H]4CO[C@H]5[C@@H]4OC[C@H]5O)nc3cc2Cl)cc1` (stereo partly drawn) [Example 21, N′-[4-(2-{[(3R,3aR,6R,6aR)-6-Hydroxy-hexahydrofuro[3,2-b]furan-3-yl]oxy}-6-chloro-3H-imidazo[4,5-b]pyridin-5-yl)phenyl]-N,N-dimethyl-methanesulfonimidamide], for which the EC50 was 2.9 µM. `CS(=O)(=Nc1ccc(-c2ccc(-c3nc4[nH]c(O[C@@H]5CO[C@H]6[C@@H]5OC[C@H]6O)nc4cc3Cl)cc2)cc1)NC1CCC1` (stereo partly drawn) [Example 7, N-{4-[4-(2-{[(3R,3aR,6R,6aR)-6-Hydroxy-hexahydrofuro[3,2-b]furan-3-yl]oxy}-6-chloro-3H-imidazo[4,5-b]pyridin-5-yl)phenyl]phenyl}-N′-cyclobutyl-methanesulfonimidamide] registered an EC50 of 0.037 µM. Molecule `CS(=O)(=Nc1ccc(-c2ccc(-c3nc4[nH]c(O[C@@H]5CO[C@H]6[C@@H]5OC[C@H]6O)nc4cc3Cl)cc2)cc1)N1CCCC1` (stereo partly drawn) [Example 6, (3R,3aR,6R,6aR)-6-({6-Chloro-5-[4-(4-{[methyl(oxo)pyrrolidin-1-yl-λ^6-sulfanylidene]-amino}phenyl)phenyl]-3H-imidazo[4,5-b]pyridin-2-yl}oxy)hexahydrofuro[3,2-b]furan-3-ol] displayed an EC50 of 0.054 µM. In the case of `CN(C)S(C)(=O)=Nc1cnc(-c2ccc(-c3nc4[nH]c(O[C@@H]5CO[C@H]6[C@@H]5OC[C@H]6O)nc4cc3Cl)cc2)nc1` (stereo partly drawn) [Example 13, N′-{2-[4-(2-{[(3R,3aR,6R,6aR)-6-hydroxy-hexahydrofuro[3,2-b]furan-3-yl]oxy}-6-chloro-3H-imidazo[4,5-b]pyridin-5-yl)phenyl]pyrimidin-5-yl}-N,N-dimethyl-methanesulfonimidamide], the midpoint of the response, the EC50, lay at 0.03 µM. This EC50 lies about 1.8-fold lower than the previous one.

`CN=S(=O)(c1ccc(-c2ccc(-c3nc4[nH]c(O[C@@H]5CO[C@H]6[C@@H]5OC[C@H]6O)nc4cc3Cl)cc2)cc1)N(C)C` (stereo partly drawn) [Example 15, 4-[4-(2-{[(3R,3aR,6R,6aR)-6-Hydroxy-hexahydrofuro[3,2-b]furan-3-yl]oxy}-6-chloro-3H-imidazo[4,5-b]pyridin-5-yl)phenyl]-N,N,N′-trimethyl-benzenesulfonimidamide] had an EC50 of 0.09 µM. Compared with the last molecule, the EC50 is about 3-fold higher. `N=S1(=O)CCCN1Cc1ccc(-c2ccc(-c3nc4[nH]c(O[C@@H]5CO[C@H]6[C@@H]5OC[C@H]6O)nc4cc3Cl)cc2)cc1` (stereo partly drawn) [Example 14, 2-({4-[4-(2-{[(3R,3aR,6R,6aR)-6-Hydroxy-hexahydrofuro[3,2-b]furan-3-yl]oxy}-6-chloro-3H-imidazo[4,5-b]pyridin-5-yl)phenyl]phenyl}methyl)-1-imino-1λ^6,2-thiazolidin-1-one] yielded an EC50 of 0.052 µM. As to `CN(C)S(C)(=O)=Nc1ccc(-c2ccc(-c3nc4[nH]c(O[C@@H]5CO[C@H]6[C@@H]5OC[C@H]6O)nc4cc3Cl)cc2)cc1` (stereo partly drawn) [Example 1, N′-{4-[4-(2-{[(3R,3aR,6R,6aR)-6-Hydroxy-hexahydrofuro[3,2-b]furan-3-yl]oxy}-6-chloro-3H-imidazo[4,5-b]pyridin-5-yl)phenyl]phenyl}-N,N-dimethyl-methanesulfonimidamide], the EC50 was found to be 0.026 µM. In the case of `CNS(C)(=O)=Nc1ccc(-c2ccc(-c3nc4[nH]c(O[C@@H]5CO[C@H]6[C@@H]5OC[C@H]6O)nc4cc3Cl)cc2)cc1` (stereo partly drawn) [Example 2, N′-{4-[4-(2-{[(3R,3aR,6R,6aR)-6-Hydroxy-hexahydrofuro[3,2-b]furan-3-yl]oxy}-6-chloro-3H-imidazo[4,5-b]pyridin-5-yl)phenyl]phenyl}-N-methyl-methanesulfonimidamide] it was 0.02 µM; in that of `CNS(C)(=O)=Nc1ccc(-c2ccc(-c3nc4[nH]c(O[C@@H]5CO[C@H]6[C@@H]5OC[C@H]6O)nc4cc3Cl)cc2)nc1` (stereo partly drawn) [Example 11, N′-{6-[4-(2-{[(3R,3aR,6R,6aR)-6-Hydroxy-hexahydrofuro[3,2-b]furan-3-yl]oxy}-6-chloro-3H-imidazo[4,5-b]pyridin-5-yl)phenyl]pyridin-3-yl}-N-methyl-methanesulfonimidamide], 0.062 µM. In turn, `CS(=O)(=Nc1ccc(-c2ccc(-c3nc4[nH]c(O[C@@H]5CO[C@H]6[C@@H]5OC[C@H]6O)nc4cc3Cl)cc2)cc1)NC1CC1` (stereo partly drawn) [Example 9, N-{4-[4-(2-{[(3R,3aR,6R,6aR)-6-Hydroxy-hexahydrofuro[3,2-b]furan-3-yl]oxy}-6-chloro-3H-imidazo[4,5-b]pyridin-5-yl)phenyl]phenyl}-N′-cyclopropyl-methanesulfonimidamide] gave an EC50 of 0.089 µM.

Turning to `CS(=O)(=NCc1ccc(-c2ccc(-c3nc4[nH]c(O[C@@H]5CO[C@H]6[C@@H]5OC[C@H]6O)nc4cc3Cl)cc2)cc1)N1CCCC1` (stereo partly shown) [Example 19], the EC50 is 0.138 µM. Against the preceding molecule, the EC50 is about 1.6-fold higher.

In turn, `CN(C)S(=N)(=O)c1ccc(-c2ccc(-c3nc4[nH]c(O[C@@H]5CO[C@H]6[C@@H]5OC[C@H]6O)nc4cc3Cl)cc2)cc1` (stereo partly drawn) [Example 12, 4-[4-(2-{[(3R,3aR,6R,6aR)-6-Hydroxy-hexahydrofuro[3,2-b]furan-3-yl]oxy}-6-chloro-3H-imidazo[4,5-b]pyridin-5-yl)phenyl]-N,N-dimethyl-benzenesulfonimidamide] yielded an EC50 of 0.002 µM. In turn, `CS(=O)(=Nc1ccc(-c2ccc(-c3nc4[nH]c(O[C@@H]5CO[C@H]6[C@@H]5OC[C@H]6O)nc4cc3Cl)cc2)cc1)N1CCC1` (stereo partly shown) [Example 5] had an EC50 of 0.015 µM.

Take `N#CN=S1(=O)CCCN1c1ccc(-c2ccc(-c3nc4[nH]c(O[C@@H]5CO[C@H]6[C@@H]5OC[C@H]6O)nc4cc3Cl)cc2)cc1` (stereo partly drawn) [Example 17, [(2-{4-[4-(2-{[(3R,3aR,6R,6aR)-6-Hydroxy-hexahydrofuro[3,2-b]furan-3-yl]oxy}-6-chloro-3H-imidazo[4,5-b]pyridin-5-yl)phenyl]phenyl}-1-oxo-1λ^6,2-thiazolidin-1-ylidene)amino]carbonitrile]: the EC50 was determined as 0.202 µM. For the molecule `CCN(C)S(C)(=O)=Nc1ccc(-c2ccc(-c3nc4[nH]c(O[C@@H]5CO[C@H]6[C@@H]5OC[C@H]6O)nc4cc3Cl)cc2)cc1` (stereo partly drawn) [Example 4, N′-{4-[4-(2-{[(3R,3aR,6R,6aR)-6-Hydroxy-hexahydrofuro[3,2-b]furan-3-yl]oxy}-6-chloro-3H-imidazo[4,5-b]pyridin-5-yl)phenyl]phenyl}-N-ethyl-N-methyl-methanesulfonimidamide], a half-maximal response (EC50) required 0.052 µM. Compared with the last molecule, the EC50 is about 3.9-fold lower.

Turning to `CCNS(C)(=O)=Nc1ccc(-c2ccc(-c3nc4[nH]c(O[C@@H]5CO[C@H]6[C@@H]5OC[C@H]6O)nc4cc3Cl)cc2)cc1` (stereo partly drawn) [Example 8, N-{4-[4-(2-{[(3R,3aR,6R,6aR)-6-Hydroxy-hexahydrofuro[3,2-b]furan-3-yl]oxy}-6-chloro-3H-imidazo[4,5-b]pyridin-5-yl)phenyl]phenyl}-N′-ethyl-methanesulfonimidamide], the midpoint of the response, the EC50, lay at 0.061 µM. For the molecule `CC(C)NS(C)(=O)=Nc1ccc(-c2ccc(-c3nc4[nH]c(O[C@@H]5CO[C@H]6[C@@H]5OC[C@H]6O)nc4cc3Cl)cc2)cc1` (stereo partly drawn) [Example 3, N′-{4-[4-(2-{[(3R,3aR,6R,6aR)-6-Hydroxy-hexahydrofuro[3,2-b]furan-3-yl]oxy}-6-chloro-3H-imidazo[4,5-b]pyridin-5-yl)phenyl]phenyl}-N-(propan-2-yl)-methanesulfonimidamide], it took 0.094 µM to reach a half-maximal effect (EC50).

For the origin of these results see US9422312B2, “Azabenzimidazole derivatives” (Boehringer Ingelheim International GmbH, priority 2014, dated 2016).
